Target: GSK-3 (Homo sapiens, UniProt P49841)
Experiment: GSK-3 inhibition, cell-free 33P-ATP peptide substrate SPA assay
Format: biochemical
Details: read-out: inhibitory activity against GSK-3, expressed as IC50
Procedure: The specific activity of a compound, stereoisomer, or prodrug of formula (I) in inhibiting GSK-3 can be determined in both cell-free and cell-based assays, both of which have been previously described in the relevant art. See, for example, U.S. Pat. Nos. 6,417,185 and 6,489,344, the disclosures of which are incorporated herein by reference in their entirety.
A cell-free assay can be generally carried out by incubating GSK-3 with a peptide substrate, radiolabeled ATP (e.g., for example, γ^33P- or γ^32P-ATP, both of which are available from Amersham; Arlington Heights, Ill.), magnesium ions, and the compound to be assayed. […] The amount of γ^33P or […] remaining in each well after washing is then quantified to determine the amount of radiolabeled phosphate incorporated into the peptide substrate. […]
Another example of a GSK-3 assay, similar to the one described hereinabove, is as follows: enzyme activities are assayed as the incorporation of ^33P from gamma phosphate of ^33P-ATP (Amersham; Arlington Heights, Ill.; catalog #AH-9968) into biotinylated peptide substrate PKTP-KKAKKL. […] The final concentration of ATP is 0.5 μM (final specific radioactivity of […]), and the final concentration of substrate is 0.75 μM. […] Radioactivity associated with the beads is then quantified by scintillation counting. […]

Chain of GSK-3 (P49841 whole entry): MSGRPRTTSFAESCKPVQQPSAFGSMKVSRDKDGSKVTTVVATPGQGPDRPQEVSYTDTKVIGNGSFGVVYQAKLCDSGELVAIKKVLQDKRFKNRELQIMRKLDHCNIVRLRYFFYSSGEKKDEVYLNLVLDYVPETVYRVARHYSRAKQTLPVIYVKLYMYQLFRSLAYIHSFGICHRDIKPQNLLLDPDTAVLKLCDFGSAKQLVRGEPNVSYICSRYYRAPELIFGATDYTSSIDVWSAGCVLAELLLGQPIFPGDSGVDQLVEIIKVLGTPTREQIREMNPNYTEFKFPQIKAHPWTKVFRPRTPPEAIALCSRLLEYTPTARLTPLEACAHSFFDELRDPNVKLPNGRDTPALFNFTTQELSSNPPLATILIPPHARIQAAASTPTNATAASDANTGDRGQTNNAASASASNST

COc1nccc(C2CC(=O)Nc3n[nH]c(C4CCC4)c32)n1 (stereo not shown) [Example 45, 3-Cyclobutyl-4-(2-methoxy-pyrimidin-4-yl)-2,4,5,7-tetrahydro-pyrazolo[3,4-b]pyridin-6-one]
IC50: 6.5 nM
